Measured values reported in publication PMC7708037, “Targeting OGG1 arrests cancer cell proliferation by inducing replication stress” (Nucleic Acids Research, 2020).

How the values were obtained:
Format in all cases: cell-based, human
H460 = assay: Colony formation assay; details: H460, 6–11 days, Figure 3D
Experimental: (§1) The indicated concentrations TH5487 were spotted in 6-well plates using a Tecan D300e digital dispenser. 200–500 cells/well H460, ACHN, Ogg1^−/− mouse embryonic fibroblasts and MRC5 cells were then seeded at 200–500 cells/well and incubated for 7–11 days. Colonies exceeding 50 cells were fixed, stained and enumerated as above.
(§2) Figure 3. The OGG1 inhibitor TH5487 is selectively toxic to oncogene-expressing cells and cancer cell lines. (A) Close-up view of ligand TH5487 (green) binding to human OGG1. Important residues in the binding site are marked, hydrogen bond interactions are shown in black dashed line, water (red sphere)-mediated interactions in grey dashed line. (B) Comparison between the binding of ligand TH5487 (green) to human OGG1 (gray) with the structure of TH5675 (pink) bound to mouse OGG1 (yellow, PDB 6G3Y). (C) Viability of BJ-Tert and BJ-Ras cells exposed to the indicated concentrations TH5487 for five days. Data are average ±SD of four technical replicates from two independent experiments. (D) Clonogenic survival of cell lines exposed to TH5487. The cancer cell lines ACHN and H460, and the non-transformed cell lines MRC5 and Ogg1^−/− mouse embryonic fibroblasts (MEF) were incubated for 6–11 days in the presence of the indicated concentrations TH5487, followed by colony enumeration. Data are average ±SD values of four technical replicates, representative of three independent experiments. (E) TH5487 selectively decreases viability of cancer cell lines. EC50-values of 34 cancer (red) and 7 non-transformed cell lines (blue). Cells were exposed to a dilution series of TH5487 for five days followed by a viability assessment using resazurin. All cell lines were tested in two to ten independent experiments. Each point represents the EC50-value from one experiment (average of two or three technical replicates). (F) Comparative analysis of EC50 values for TH5487 in cancer- and non-transformed cell lines, and CD34+ hematopoietic stem cells, CD34- fraction from cord blood or PBMCs from healthy donor blood. […]

MRC5 = assay: Colony formation assay; details: MRC5, up to 20 μM
Experimental: as §1, §2

ACHN = assay: Colony formation assay; details: 6–11 days, Figure 3D
Experimental: as §1, §2

γH2AX in A3 cells = assay: Phosphorylated γH2AX (immunofluorescence / flow cytometry); details: 10 μM
Experimental: A3 cells were seeded in a 96-well plate 24 h prior to start of the experiment. Cells were then treated with 10 μM TH5487, for 24, 48 and 72 h, respectively or with 2 mM hydroxyurea for 1 h. Final DMSO concentration was 0.2%. After the treatment, cells were transferred to an imaging plate (black Falcon 96-well plate) pre-coated with 0.1% poly L-lysine (Sigma). Cells were allowed to attach for 15 minutes and were then fixed with 4% paraformaldehyde. The plate was washed with 0.05% Tween 20 in PBS, cells were permeabilized with 0.5% Triton-X100 in PBS and blocked with 2% bovine serum albumin in PBS. […] Data from three independent experiments were pooled and analyzed for statistical significance by one-way analysis of variance.
At the indicated time points, compound/dox treated cells were incubated in medium containing 10 μM 5-ethynyl-2′-deoxyuridine (EdU) (Thermo Fisher, A10044) for 20 min. […] Data was analyzed using Kaluza® Flow Analysis Software (Beckman Coulter).
Figure 5. […] A3 cells were treated with 20 mM KBrO3 for 1 h or with 10 μM TH5487 for the indicated times, and the amount of genomic 8-oxodG was quantified with LC-MS/MS. […] A3 cells were treated with 10 μM TH5487 for 72 h and strand-breaks and OGG1 substrate lesions were analyzed with the OGG1-modified Comet assay. […] At least 33 000 nuclei per group were quantified from three independent experiments. […]

Q: For `O=C(Nc1ccc(I)cc1)N1CCC(n2c(=O)[nH]c3c(Br)cccc32)CC1` [TH5487], which Clonogenic potential (H460) is on record?
A: Its Clonogenic potential is “concentration-dependent loss of clonogenic potential”.

Q: And the Clonogenic potential (MRC5)?
A: The Clonogenic potential was “unaffected”.

Q: And the Clonogenic potential (ACHN)?
A: Its Clonogenic potential is “concentration-dependent loss of clonogenic potential”.

Q: And the “Cell cycle distribution of γH2AX positive cells” value (γH2AX in A3 cells; 72 h)?
A: The value was “confined to S-phase cells”.

Q: And the “Phosphorylated γH2AX” value (γH2AX in A3 cells; after 24 h)?
A: Its value is “significant increase”.
